# Literature values in patent US7812020B2, “Substituted pyridine derivatives” (priority 2005, dated 2010).
# Experiments:
# rats and mice = details: oral and intraperitoneal administration; electrically induced seizures, pentylenetetrazole, picrotoxin, NMDA, DBA/2 mouse
# [1] = tested on: animal models of anxiety-like behaviour; details: in vivo
# rat [2] = details: following kainic acid-induced status epilepticus in the rat
# amygdala kindling model = details: complex partial seizures
# epileptic patients = details: clinical trials
# [3] = tested on: K(+) current in neuronal cells
# [4] = tested on: animal models of neuropathic pain; details: in vivo
# rat [5] = tested on: rat
compound,measurement,setting,value
"CCOC(=O)Nc1ccc(NCc2ccc(F)cc2)cc1N [Retigabine, N-(2-amino-4-(4-fluorobenzylamino)-phenyl)carbamic acid ethyl ester]",anticonvulsant activity,rats and mice,active
same,activity in anxiety-like behaviour models,[1],active
same,limbic neurodegeneration and markers of apoptosis,rat [2],prevent limbic neurodegeneration and the expression of markers of apoptosis
same,activity in amygdala kindling model,amygdala kindling model,active
same,incidence of seizures,epileptic patients,effectiveness in reducing the incidence of seizures
same,effect on K(+) current,[3],activate a K(+) current
same,effect in neuropathic pain models,[4],beneficial
same,progression of hippocampal kindling,rat [5],delay the progression of hippocampal kindling
